Results published in US20230295234A1, “ANTIMICROBIAL PEPTIDOMIMETICS” (SPEXIS AG, priority 2020, published 2023).
Where two headings read alike, the source gives them in different places. Peptide text beside a SMILES is read from it.

Key:
[1] = test system: human red blood cells (hRBC); assay: Hemolysis of human red blood cells; assay type: cell-based
Summary of the method: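 Percent hemolysis is OD540 of peptide-treated supernatant relative to water-lysed cells. Each peptide was tested at 200 μg/mL against 20% (v/v) washed human erythrocytes. Incubation was 1 h at 37 °C, 300 rpm.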

[2] = test system: Escherichia coli ATCC 25922
Summary of the method: (§1)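 Peptides were made up as 1 mg/mL stocks in sterile water. Colonies in 0.85% saline were set to 0.5 McFarland, then diluted in cation-adjusted Mueller-Hinton II broth to about 5×10^5 CFU/mL. Inoculum was combined with two-fold serial peptide dilutions in water containing 0.002% (final) polysorbate 80.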

[3] = test system: Klebsiella pneumoniae SSI3010
Summary of the method: as §1

[4] = test system: Escherichia coli MCR-1 Af 45
Summary of the method: as §1

[5] = Mueller-Hinton broth II, 18-20 hours at 35° C.

| Structure (SMILES) | Hemolysis at 0.2 g/L ([1]; red cells of human, 1 h) [%] | Escherichia coli ATCC 25922 MIC ([2]; ATCC 25922) [µg/mL] | Klebsiella pneumoniae SSI3010 MIC ([3]; SSI3010) [µg/mL] | Escherichia coli MCR-1 Af 45 MIC ([4]; MCR-1 Af 45) [µg/mL] | Escherichia coli MCR-1 Af 45 MIC [4, 5] [µg/mL] | Hemolysis at 0.2 g/L ([1]; 20% hRBC, 1 h at 37° C.) [%] | Escherichia coli ATCC 25922 MIC [2, 5] [µg/mL] | Klebsiella pneumoniae SSI3010 MIC [3, 5] [µg/mL] |
| --- | --- | --- | --- | --- | --- | --- | --- | --- |
| CC[C@H](C)[C@H](NC(=O)[C@@H](NC(=O)[C@@H]1CCCN1C(=O)[C@@H](NC(=O)[C@@H]1C[C@@H](N)CN1C(=O)[C@H](CCCCN)NC(=O)[C@@H](N)CCCCN)C(C)C)[C@@H](C)CC)C(=O)N[C@@H](Cc1ccc(O)cc1)C(=O)N[C@H]1CCC(=O)NCC[C@@H](C(=O)N[C@@H](CCN)C(=O)N[C@@H](CCCNC(=N)N)C(=O)N[C@@H](Cc2ccc(O)cc2)C(=O)O)NC(=O)[C@H](CCCCN)NC(=O)[C@@H](CCN)NC(=O)[C@H]([C@@H](C)O)NC(=O)[C@H](CCN)NC(=O)[C@H](CCCNC(=N)N)NC(=O)[C@H](CC(N)=O)NC1=O [Example 133] (HELM PEPTIDE1{K.K.[N[C@@H]1C[C@@H](C(=O)[*:2])N([*:1])C1].V.P.I.I.Y.E.N.R.[Dab].T.[NCC[C@@H](N[*:1])C(=O)[*:2]].K.[Dab].[Dab].R.Y}$PEPTIDE1,PEPTIDE1,9:R3-16:R3$$$V2.0) | 0 | 0.25 | 0.25 | 0.25 |  |  |  |  |
| CCCC[C@H](NC(=O)[C@H](CCCNC(=N)N)NC(=O)[C@H](CCN)NC(=O)[C@@H]1CSSC[C@H](NC(=O)[C@H](Cc2ccc(O)cc2)NC(=O)[C@@H](NC(=O)[C@@H](NC(=O)[C@@H]2CCCN2C(=O)[C@@H](N)C(C)C)[C@@H](C)CC)[C@@H](C)CC)C(=O)N[C@@H](CC(N)=O)C(=O)N[C@@H](CCCNC(=N)N)C(=O)N[C@@H](CCCNC(=N)N)C(=O)N[C@@H]([C@@H](C)O)C(=O)N[C@H](CCN)C(=O)N[C@@H](CCCCN)C(=O)N1)C(=O)O [Example 134] (HELM PEPTIDE1{V.P.I.I.Y.C.N.R.R.T.[NCC[C@@H](N[*:1])C(=O)[*:2]].K.C.[Dab].R.[Nle]}$PEPTIDE1,PEPTIDE1,6:R3-13:R3$$$V2.0) | 0 | 0.0625 | 0.125 |  | 0.0625 |  |  |  |
| CCCC[C@H](NC(=O)[C@H](CCCNC(=N)N)NC(=O)[C@H](CCN)NC(=O)[C@@H]1CSSC(C)(C)[C@H](NC(=O)[C@H](Cc2ccc(O)cc2)NC(=O)[C@@H](NC(=O)[C@@H](NC(=O)[C@@H]2C[C@@H](N)CN2C(=O)[C@@H](N)C(C)C)[C@@H](C)CC)[C@@H](C)CC)C(=O)N[C@@H](CC(N)=O)C(=O)N[C@@H](CCCNC(=N)N)C(=O)N[C@@H](CCCNC(=N)N)C(=O)N[C@@H]([C@@H](C)O)C(=O)N[C@H](CCN)C(=O)N[C@@H](CCCCN)C(=O)N1)C(=O)O [Example 135] (HELM PEPTIDE1{V.[N[C@@H]1C[C@@H](C(=O)[*:2])N([*:1])C1].I.I.Y.[Pen].N.R.R.T.[NCC[C@@H](N[*:1])C(=O)[*:2]].K.C.[Dab].R.[Nle]}$PEPTIDE1,PEPTIDE1,6:R3-13:R3$$$V2.0) |  |  |  |  | 0.0625 | 0 | 0.0625 | 0.125 |
| CCCC[C@H](NC(=O)[C@H](CCCNC(=N)N)NC(=O)[C@H](CCN)NC(=O)[C@@H]1CSSC(C)(C)[C@H](NC(=O)[C@H](Cc2ccc(O)cc2)NC(=O)[C@@H](NC(=O)[C@@H](NC(=O)[C@@H]2C[C@@H](N)CN2C(=O)[C@@H](N)C(C)C)[C@@H](C)CC)[C@@H](C)CC)C(=O)N[C@@H](CC(N)=O)C(=O)N[C@@H](CCCNC(=N)N)C(=O)N[C@@H](CCN)C(=O)N[C@@H]([C@@H](C)O)C(=O)N[C@H](CCN)C(=O)N[C@@H](CCCCN)C(=O)N1)C(=O)O [Example 136] (HELM PEPTIDE1{V.[N[C@@H]1C[C@@H](C(=O)[*:2])N([*:1])C1].I.I.Y.[Pen].N.R.[Dab].T.[NCC[C@@H](N[*:1])C(=O)[*:2]].K.C.[Dab].R.[Nle]}$PEPTIDE1,PEPTIDE1,6:R3-13:R3$$$V2.0) | 0 | 0.125 | 0.125 |  | 0.0625 |  |  |  |
| CCCC[C@H](NC(=O)[C@H](CCCNC(=N)N)NC(=O)[C@H](CCN)NC(=O)[C@@H]1CSSC(C)(C)[C@H](NC(=O)[C@H](Cc2ccc(O)cc2)NC(=O)[C@@H](NC(=O)[C@@H](NC(=O)CN(CCN)C(=O)[C@@H](N)C(C)C)[C@@H](C)CC)[C@@H](C)CC)C(=O)N[C@@H](CC(N)=O)C(=O)N[C@@H](CCCNC(=N)N)C(=O)N[C@@H](CCN)C(=O)N[C@@H]([C@@H](C)O)C(=O)N[C@H](CCN)C(=O)N[C@@H](CCCCN)C(=O)N1)C(=O)O [Example 137] (HELM PEPTIDE1{V.[NCCN(CC(=O)[*:2])[*:1]].I.I.Y.[Pen].N.R.[Dab].T.[NCC[C@@H](N[*:1])C(=O)[*:2]].K.C.[Dab].R.[Nle]}$PEPTIDE1,PEPTIDE1,6:R3-13:R3$$$V2.0) | 0 | 0.125 | 0.25 |  | 0.0625 |  |  |  |
| CCCC[C@H](NC(=O)[C@H](CCCNC(=N)N)NC(=O)[C@H](CCN)NC(=O)[C@@H]1CSSC(C)(C)[C@H](NC(=O)[C@H](Cc2ccc(O)cc2)NC(=O)[C@@H](NC(=O)[C@@H](NC(=O)[C@@H]2C[C@@H](N)CN2C(=O)[C@@H](N)C(C)C)[C@@H](C)CC)[C@@H](C)O)C(=O)N[C@@H](CC(N)=O)C(=O)N[C@@H](CCCNC(=N)N)C(=O)N[C@@H](CCN)C(=O)N[C@@H]([C@@H](C)O)C(=O)N[C@H](CCN)C(=O)N[C@@H](CCCCN)C(=O)N1)C(=O)O [Example 138] (HELM PEPTIDE1{V.[N[C@@H]1C[C@@H](C(=O)[*:2])N([*:1])C1].I.T.Y.[Pen].N.R.[Dab].T.[NCC[C@@H](N[*:1])C(=O)[*:2]].K.C.[Dab].R.[Nle]}$PEPTIDE1,PEPTIDE1,6:R3-13:R3$$$V2.0) | 0 | 0.125 | 0.25 |  | 0.0625 |  |  |  |
| CC[C@H](C)[C@H](NC(=O)[C@@H](NC(=O)[C@@H]1CCCN1C(=O)[C@@H](N)C(C)C)[C@@H](C)CC)C(=O)N[C@@H](Cc1ccc(O)cc1)C(=O)N[C@H]1CSSC[C@@H](C(=O)N[C@@H](CCN)C(=O)N[C@@H](CCCNC(=N)N)C(=O)N[C@@H](CC2CCCCC2)C(=O)O)NC(=O)[C@H](CCCCN)NC(=O)[C@@H](CCN)NC(=O)[C@H]([C@@H](C)O)NC(=O)[C@H](CCN)NC(=O)[C@H](CCCNC(=N)N)NC(=O)[C@H](CC(N)=O)NC1=O [Example 139] (HELM PEPTIDE1{V.P.I.I.Y.C.N.R.[Dab].T.[NCC[C@@H](N[*:1])C(=O)[*:2]].K.C.[Dab].R.[Cha]}$PEPTIDE1,PEPTIDE1,6:R3-13:R3$$$V2.0) | 0 | 0.0625 | 0.125 |  | 0.0625 |  |  |  |
| CC[C@H](C)[C@H](NC(=O)[C@@H](NC(=O)[C@@H]1CCCN1C(=O)[C@@H](N)C(C)C)[C@@H](C)CC)C(=O)N[C@@H](Cc1ccc(O)cc1)C(=O)N[C@@H]1C(=O)N[C@@H](CC(N)=O)C(=O)N[C@@H](CCCNC(=N)N)C(=O)N[C@@H](CCN)C(=O)N[C@@H]([C@@H](C)O)C(=O)N[C@H](CCN)C(=O)N[C@@H](CCCCN)C(=O)N[C@H](C(=O)N[C@@H](CCN)C(=O)N[C@@H](CCCNC(=N)N)C(=O)N[C@@H](Cc2ccc(O)cc2)C(=O)O)CSSC1(C)C [Example 140] (HELM PEPTIDE1{V.P.I.I.Y.[Pen].N.R.[Dab].T.[NCC[C@@H](N[*:1])C(=O)[*:2]].K.C.[Dab].R.Y}$PEPTIDE1,PEPTIDE1,6:R3-13:R3$$$V2.0) |  |  |  |  | 0.0625 | 0 | 0.0625 | 0.125 |
| CC[C@H](C)[C@H](NC(=O)[C@@H](NC(=O)[C@@H]1CCCN1C(=O)[C@@H](N)C(C)C)[C@@H](C)CC)C(=O)N[C@@H](Cc1ccc(O)cc1)C(=O)N[C@H]1CSSC(C)(C)[C@@H](C(=O)N[C@@H](CCN)C(=O)N[C@@H](CCCNC(=N)N)C(=O)N[C@@H](Cc2ccc(O)cc2)C(=O)O)NC(=O)[C@H](CCCCN)NC(=O)[C@@H](CCN)NC(=O)[C@H]([C@@H](C)O)NC(=O)[C@H](CCN)NC(=O)[C@H](CCCNC(=N)N)NC(=O)[C@H](CC(N)=O)NC1=O [Example 141] (HELM PEPTIDE1{V.P.I.I.Y.C.N.R.[Dab].T.[NCC[C@@H](N[*:1])C(=O)[*:2]].K.[Pen].[Dab].R.Y}$PEPTIDE1,PEPTIDE1,6:R3-13:R3$$$V2.0) | 0 | 0.0625 | 0.25 |  | 0.0625 |  |  |  |
| CC[C@H](C)[C@H](NC(=O)[C@@H](NC(=O)[C@@H]1C[C@@H](N)CN1C(=O)[C@@H](N)C(C)C)[C@@H](C)CC)C(=O)N[C@@H](Cc1ccc(O)cc1)C(=O)N[C@H]1CSSC[C@@H](C(=O)N[C@@H](CCN)C(=O)N[C@@H](CCCNC(=N)N)C(=O)N[C@@H](Cc2ccc(O)cc2)C(=O)O)NC(=O)[C@H](CCCCN)NC(=O)[C@@H](CCN)NC(=O)[C@H]([C@@H](C)O)NC(=O)[C@H](CCN)NC(=O)[C@H](CCCNC(=N)N)NC(=O)[C@H](CC(N)=O)NC1=O [Example 142] (HELM PEPTIDE1{V.[N[C@@H]1C[C@@H](C(=O)[*:2])N([*:1])C1].I.I.Y.C.N.R.[Dab].T.[NCC[C@@H](N[*:1])C(=O)[*:2]].K.C.[Dab].R.Y}$PEPTIDE1,PEPTIDE1,6:R3-13:R3$$$V2.0) | 0 | 0.125 | 0.0625 |  | 0.0625 |  |  |  |
